32 compounds from patent US20090048258A1, “Amide Compound” (priority 2005, published 2009) can be followed below.

Structures are written as SMILES.

In the assay the target is T1, Human DGAT1 (Homo sapiens, UniProt O75907).
T1 construct: my translation of the primer: M-G-DYKDDDD-GDRGSSRRR) (N); made in house; host or cells: Sf9 insect cells (recombinant baculovirus BAC-DGAT1, pFASTBAC1); microsome fraction
T1 sequence (O75907 1-488): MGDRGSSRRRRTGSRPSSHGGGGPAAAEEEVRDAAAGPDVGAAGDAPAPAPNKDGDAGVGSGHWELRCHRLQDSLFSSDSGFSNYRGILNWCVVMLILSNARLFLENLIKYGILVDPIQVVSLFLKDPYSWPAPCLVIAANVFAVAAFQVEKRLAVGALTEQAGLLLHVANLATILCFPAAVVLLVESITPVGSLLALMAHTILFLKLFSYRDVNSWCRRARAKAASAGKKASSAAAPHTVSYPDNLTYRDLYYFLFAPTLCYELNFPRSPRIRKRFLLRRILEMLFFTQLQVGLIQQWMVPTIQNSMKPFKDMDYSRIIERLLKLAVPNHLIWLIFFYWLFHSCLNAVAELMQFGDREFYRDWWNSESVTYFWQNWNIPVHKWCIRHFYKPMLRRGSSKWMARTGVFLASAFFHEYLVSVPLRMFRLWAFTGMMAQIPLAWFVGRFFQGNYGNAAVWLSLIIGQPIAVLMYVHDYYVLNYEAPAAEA
Put plainly: DGAT inhibitory activity: [14C]-triglyceride synthesis by DGAT1 high expression Sf9 microsome. Type of assay: biochemical. The conditions noted are these: Table 2, 25 μM dioleoylglycerol, 25 μM [14C]-Oleoyl-CoA, 32° C., 15 min, read-out: DGAT inhibitory activity (according to IC50). An outline of the steps:
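DGAT1 was overexpressed from recombinant baculovirus in Sf9 cells, and microsomes from these cells were the enzyme source. Reactions ran in 100 mM Tris-HCl pH 7.5, 250 mM sucrose, 150 mM MgCl2 and 0.01% BSA. [14C]-triglyceride was extracted into chloroform, separated by TLC and quantified by imaging plate, with inhibition calculated against control and blank (no microsome) counts.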
As a reminder, the IC50 is the concentration that gives 50% inhibition. As to `CCOc1ccc(C(=O)CCC(=O)Nc2cc(-c3ccccc3)c3ccc(/C=C/C#N)cc3n2)cc1OCC` [Example 86, N-{7-[(E)-2-cyanovinyl]-4-phenylquinolin-2-yl}-4-(3,4-diethoxyphenyl)-4-oxobutanamide], the IC50 is 0.01 to 0.05 µM. `CCOc1ccc(C(=O)CCC(=O)Nc2cc(-c3ccccc3)c3ccc(CCC(=O)OC(C)(C)C)cc3n2)cc1OCC` [Example 87, tert-butyl 3-(2-{[4-(3,4-diethoxyphenyl)-4-oxobutanoyl]amino}-4-phenylquinoline-7-yl)propanoate]: the 50% inhibitory concentration (IC50) fell in the range of 0.01 to 0.05 µM.

For `CCOc1ccc(C(=O)CCC(=O)Nc2nc3ccccc3c(-c3ccccc3)c2C)cc1OCC` [Example 88, 4-(3,4-diethoxyphenyl)-N-(3-methyl-4-phenylquinolin-2-yl)-4-oxobutanamide], the IC50 was in the range of 0.05 to 0.5 µM. Consider `CCOc1ccc(C(=O)CCC(=O)Nc2cc(-c3ccccn3)c3ccccc3n2)cc1OCC` [Example 89, 4-(3,4-diethoxyphenyl)-4-oxo-N-[4-(pyridin-2-yl)quinolin-2-yl]butanamide], for which the IC50 was in the range of 0.05 to 0.5 µM. In the case of `CCOc1ccc(C(=O)CCC(=O)Nc2cc(-c3ccc(OCCN4CCOCC4)cc3)c3ccccc3n2)cc1OCC` [Example 90, 4-(3,4-diethoxyphenyl)-N-{4-[4-(2-(morpholin-4-yl)ethoxy)phenyl]quinolin-2-yl}-4-oxobutanamide], the half-maximal inhibitory concentration (IC50) was 0.05 to 0.5 µM. `CCOc1ccc(C(=O)CCC(=O)Nc2cc(-c3ccncc3)c3ccccc3n2)cc1OCC` [Example 91, 4-(3,4-diethoxyphenyl)-4-oxo-N-[4-(pyridin-4-yl)quinolin-2-yl]butanamide]: the IC50 was in the range of 0.05 to 0.5 µM. On to `CCOc1ccc(C(=O)CCC(=O)Nc2cc(-c3ccc(OCCNC(=O)OC(C)(C)C)cc3)c3ccccc3n2)cc1OCC` [Example 92, tert-butyl {2-[4-(2-{[4-(3,4-diethoxyphenyl)-4-oxobutanoyl]amino}quinolin-4-yl)phenoxy]ethyl}carbamate], for which the IC50 is 0.05 to 0.5 µM. The same measure for `CCOc1ccc(C(=O)CCC(=O)Nc2cc(-c3ccc(OCCCN(C)C)cc3)c3ccccc3n2)cc1OCC` [Example 93, 4-(3,4-diethoxyphenyl)-N-(4-{4-[3-(dimethylamino)propoxy]phenyl}quinolin-2-yl)-4-oxobutanamide]: 0.05 to 0.5 µM. On to `CCOc1ccc(C(=O)CCC(=O)Nc2cc(-c3ccc(OCCN)cc3)c3ccccc3n2)cc1OCC` [Example 94, N-{4-[4-(2-aminoethoxy)phenyl]quinolin-2-yl}-4-(3,4-diethoxyphenyl)-4-oxobutanamide], for which the IC50 lay within 0.05 to 0.5 µM. As to `CCOc1ccc(C(=O)CCC(=O)Nc2cc(-c3ccccc3)cc(Cc3ccccc3)n2)cc1OCC` [Example 95, N-(6-benzyl-4-phenylpyridin-2-yl)-4-(3,4-diethoxyphenyl)-4-oxobutanamide], the IC50 lay in the range of 0.05 to 0.5 µM.

In the case of `CCOC(=O)c1c(NC(=O)CCC(=O)c2ccc(OCC)c(OCC)c2)sc(Cc2ccccc2)c1-c1ccccc1` [Example 96, ethyl 5-benzyl-2-{[4-(3,4-diethoxyphenyl)-4-oxobutanoyl]amino}-4-phenylthiophene-3-carboxylate], the IC50 was 0.05 to 0.5 µM. As for `CCCc1cc(C(=O)CCC(=O)Nc2cc(-c3ccccc3)c(Cc3ccccc3)s2)ccc1OCC` [Example 97, N-(5-benzyl-4-phenyl-2-thienyl)-4-(4-ethoxy-3-propylphenyl)-4-oxobutanamide], the IC50 lay within 0.05 to 0.5 µM. The figure for `CCOc1ccc(C(=O)CCC(=O)Nc2cc(-c3ccccc3)c(Cc3ccccc3)s2)cc1Br` [Example 98, N-(5-benzyl-4-phenyl-2-thienyl)-4-(3-bromo-4-ethoxyphenyl)-4-oxobutanamide] is 0.05 to 0.5 µM; for `O=C(CCC(=O)c1ccc2c(c1)CCCC2)Nc1cc(-c2ccccc2)c(Cc2ccccc2)s1` [Example 99, N-(5-benzyl-4-phenyl-2-thienyl)-4-oxo-4-(5,6,7,8-tetrahydronaphthalen-2-yl)butanamide] it is 0.05 to 0.5 µM.

As for `CCOc1ccc(C(=O)CCC(=O)Nc2cc(C(C)(C)C)nn2-c2ccc(C(C)(C)C)cc2)cc1OCC` [Example 100, N-[3-tert-butyl-1-(4-tert-butylphenyl)-1H-pyrazol-5-yl]-4-(3,4-diethoxyphenyl)-4-oxobutanamide], the IC50 lay in the range of 0.5 to 10 µM. Consider `CCOc1ccc(C(=O)CCC(=O)Nc2cc(-c3ccccc3Cl)nn2-c2ccc(C)cc2)cc1OCC` [Example 101, N-[3-(2-chlorophenyl)-1-(4-methylphenyl)-1H-pyrazol-5-yl]-4-(3,4-diethoxyphenyl)-4-oxobutanamide], for which the IC50 lay within 0.5 to 10 µM. `CCOc1ccc(C(=O)CCC(=O)Nc2cc(-c3ccccc3)cc(-c3ccccc3)n2)cc1` [Example 102, N-(4,6-diphenylpyridin-2-yl)-4-(4-ethoxyphenyl)-4-oxobutanamide]: the IC50 lay in the range of 0.05 to 0.5 µM. The figure for `CCOc1cccc(C(=O)CCC(=O)Nc2cc(-c3ccccc3)cc(-c3ccccc3)n2)c1` [Example 103, N-(4,6-diphenylpyridin-2-yl)-4-(3-ethoxyphenyl)-4-oxobutanamide] is 0.5 to 10 µM.

In the case of `O=C(CCC(=O)c1ccc2c(c1)CCO2)Nc1cc(-c2ccccc2)cc(-c2ccccc2)n1` [Example 104, 4-(2,3-dihydro-1-benzofuran-5-yl)-N-(4,6-diphenylpyridin-2-yl)-4-oxobutanamide], the IC50 is 0.05 to 0.5 µM. The figure for `O=C(CCC(=O)c1ccc2c(c1)CCCC2)Nc1cc(-c2ccccc2)cc(-c2ccccc2)n1` [Example 105, N-(4,6-diphenylpyridin-2-yl)-4-oxo-4-(5,6,7,8-tetrahydronaphthalen-2-yl)butanamide] is 0.05 to 0.5 µM; for `CCOc1ccc(C(=O)CCC(=O)Nc2cc(-c3cccc(OC)c3)cc(-c3ccccc3)n2)cc1OCC` [Example 106, 4-(3,4-diethoxyphenyl)-N-[4-(3-methoxyphenyl)-6-phenylpyridin-2-yl]-4-oxobutanamide] it is 0.05 to 0.5 µM. As to `CCCCOCCOc1cc(NC(=O)CCC(=O)c2ccc(OCC)c(OCC)c2)nc(-c2ccccc2)c1` [Example 107, N-[4-(2-butoxyethoxy)-6-phenylpyridin-2-yl]-4-(3,4-diethoxyphenyl)-4-oxobutanamide], the IC50 lay within 0.05 to 0.5 µM. Turning to `CCOc1ccc(C(=O)CCC(=O)Nc2cn(-c3ccccc3)nc2-c2ccc(F)cc2)cc1OCC` [Example 108, 4-(3,4-diethoxyphenyl)-N-[3-(4-fluorophenyl)-1-phenyl-1H-pyrazol-4-yl]-4-oxobutanamide], the IC50 was in the range of 0.05 to 0.5 µM. For the compound `CCOc1ccc(C(=O)CCC(=O)Nc2cn(Cc3ccccc3)nc2-c2ccccc2)cc1` [Example 109, N-(1-benzyl-3-phenyl-1H-pyrazol-4-yl)-4-(4-ethoxyphenyl)-4-oxobutanamide], the IC50 lay in the range of 0.5 to 10 µM. For `CCOc1ccc(C(=O)CCC(=O)Nc2cc(-c3ccc(C4CCCCC4)cc3)cc(-c3ccccc3)n2)cc1OCC` [Example 110, N-[4-(4-cyclohexylphenyl)-6-phenylpyridin-2-yl]-4-(3,4-diethoxyphenyl)-4-oxobutanamide], the IC50 was in the range of 0.5 to 10 µM.

As to `Cc1ccc(C(=O)CCC(=O)Nc2cc(-c3ccccc3)cc(-c3ccccc3)n2)cc1C` [Example 111, 4-(3,4-dimethylphenyl)-N-(4,6-diphenylpyridin-2-yl)-4-oxobutanamide], the IC50 is 0.5 to 10 µM. As for `CCOc1ccc(C(=O)CCC(=O)Nc2cc(-c3ccc(C(=O)OC)cc3)cc(-c3ccccc3)n2)cc1OCC` [Example 112, methyl 4-(2-{[4-(3,4-diethoxyphenyl)-4-oxobutanoyl]amino}-6-phenylpyridin-4-yl)benzoate], the IC50 fell in the range of 0.5 to 10 µM. Turning to `CCOc1ccc(C(=O)CCC(=O)Nc2cc(-c3ccc(C(=O)O)cc3)cc(-c3ccccc3)n2)cc1OCC` [Example 113, 4-(2-{[4-(3,4-diethoxyphenyl)-4-oxobutanoyl]amino}-6-phenylpyridin-4-yl)benzoic acid], the IC50 lay in the range of 0.5 to 10 µM. For the compound `O=C(CCC(=O)c1ccc2c(c1)CCO2)Nc1cc(-c2cccnc2)cc(-c2ccccc2)n1` [Example 114, 4-(2,3-dihydro-1-benzofuran-5-yl)-4-oxo-N-(6′-phenyl-3,4′-bipyridine-2′-yl)butanamide], the IC50 is 0.05 to 0.5 µM. Consider `O=C(CCC(=O)c1ccc2c(c1)CCO2)Nc1cc(-c2ccoc2)cc(-c2ccccc2)n1` [Example 115, 4-(2,3-dihydro-1-benzofuran-5-yl)-N-[4-(3-furyl)-6-phenylpyridin-2-yl]-4-oxobutanamide], for which the IC50 lay in the range of 0.05 to 0.5 µM. Take `O=C(CCC(=O)c1ccc2c(c1)CCO2)Nc1cc(-c2ccncc2)cc(-c2ccccc2)n1` [Example 116, 4-(2,3-dihydro-1-benzofuran-5-yl)-4-oxo-N-(6-phenyl-4,4′-bipyridin-2-yl)butanamide]: the IC50 lay within 0.5 to 10 µM. For `CCOc1ccc(C(=O)CCC(=O)Nc2cc(-c3ccoc3)cc(-c3ccccc3)n2)cc1OCC` [Example 117, 4-(3,4-diethoxyphenyl)-N-[4-(3-furyl)-6-phenylpyridin-2-yl]-4-oxobutanamide], the IC50 fell in the range of 0.05 to 0.5 µM.
